ChEMBL document CHEMBL3576828, “Acredinones A and B, voltage-dependent potassium channel inhibitors from the sponge-derived fungus Acremonium sp. F9A015” (J Nat Prod, 2015)
Activity calls are given as the source filed them. The rule behind the calls is not given here.

Columns and labels:
[1] = target: T1, Potassium voltage-gated channel subfamily B member 1 (Homo sapiens) (UniProt Q14721); assay: (§1) Inhibition of Kv2.1 channel in […] INS1 cells assessed as inhibition of outward K+ current by electrophysiology/patch clamp technique; type: cell-based
T1 sequence (whole entry): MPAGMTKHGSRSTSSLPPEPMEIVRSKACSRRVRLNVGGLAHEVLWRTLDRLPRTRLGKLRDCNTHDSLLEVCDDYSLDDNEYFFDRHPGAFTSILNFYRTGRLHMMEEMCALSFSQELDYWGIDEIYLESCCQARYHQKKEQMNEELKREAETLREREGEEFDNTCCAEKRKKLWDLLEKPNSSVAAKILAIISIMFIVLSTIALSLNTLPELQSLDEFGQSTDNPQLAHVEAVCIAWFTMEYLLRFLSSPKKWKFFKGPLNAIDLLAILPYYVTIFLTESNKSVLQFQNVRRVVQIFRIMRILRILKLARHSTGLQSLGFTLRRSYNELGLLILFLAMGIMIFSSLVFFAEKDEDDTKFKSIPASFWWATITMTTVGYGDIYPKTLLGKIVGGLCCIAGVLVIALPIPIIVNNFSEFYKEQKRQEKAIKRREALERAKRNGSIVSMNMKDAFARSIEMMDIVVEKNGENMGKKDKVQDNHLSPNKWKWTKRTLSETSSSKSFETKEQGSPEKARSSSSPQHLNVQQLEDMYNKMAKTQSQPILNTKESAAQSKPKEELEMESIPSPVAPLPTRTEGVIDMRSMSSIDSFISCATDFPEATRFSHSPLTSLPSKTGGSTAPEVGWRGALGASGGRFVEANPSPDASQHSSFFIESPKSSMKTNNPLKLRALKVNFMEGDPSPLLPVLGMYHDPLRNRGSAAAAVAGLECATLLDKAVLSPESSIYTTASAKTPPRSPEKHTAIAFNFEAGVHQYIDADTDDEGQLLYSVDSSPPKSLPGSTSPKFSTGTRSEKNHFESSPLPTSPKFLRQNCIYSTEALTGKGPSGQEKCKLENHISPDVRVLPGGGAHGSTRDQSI

[2] = target: T2, Potassium voltage-gated channel subfamily B member 1 (Homo sapiens, UniProt Q14721); assay: as §1; type: cell-based
T2 sequence (Q14721 whole entry): T1 sequence (whole entry)

SMILES	inhibition [1]	IC50 [2] [nM]
COc1cccc(OC)c1C(=O)c1c(O)cc(C)c(OC)c1COC(C)=O	inactive	–
COc1cccc(OC)c1C(=O)c1c(O)cc(C)c(OC)c1C1=C(c2c(OC)cccc2OC)c2c(O)cc(C)c(OC)c2C1=O	–	590
COc1cccc(OC)c1C(=O)c1c(O)cc(C)c(OC)c1CC(=O)c1c(OC)c(C)cc(O)c1C(=O)c1c(OC)cccc1OC	–	1000
